Laboratory results published in patent US20230057568A1, “COMPOUNDS FOR TREATING FAMILIAL DYSAUTONOMIA” (PTC THERAPEUTICS, INC., priority 2019, published 2023).

System: Elongator complex protein 1 (ELP1, also referred to as IKBKAP)
Test: IKBKAP-HTRF Assay
Type: cell-based, human
Conditions: FD patient-derived fibroblasts GM04589, 48 hours incubation; for EC2x for IKBKAP protein expression (concentration producing two times the amount of IKBKAP protein vs DMSO vehicle control): 7-point concentration curve; for MFI (maximum fold increase in IKBKAP protein abundance relative to the vehicle control): HTRF
Method in brief: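 Sandwich HTRF (anti-IKAP d2 and K(9+8)) on cell lysates measured IKBKAP protein after overnight 4 °C incubation, read at 665 and 620 nm. Lysates came from FD patient cells exposed 48 hours to 7-point compound dilutions, in triplicate. Outputs: maximum fold increase over vehicle, and EC2× (the concentration giving twice the DMSO-control protein level).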

C[C@H](N)Cc1sc2c(NCc3ccncc3F)nc(Cl)nc2c1Br [Cpd 68, 6-[(2S)-2-aminopropyl]-7-bromo-2-chloro-N-[(3-fluoropyridin-4-yl)methyl]thieno[3,2-d]pyrimidin-4-amine]
EC2x for IKBKAP protein expression (concentration producing two times the amount of IKBKAP protein vs DMSO vehicle control): ***** (<0.005 μM) | MFI (maximum fold increase in IKBKAP protein abundance relative to the vehicle control): ***** (>4.9)

C[C@H](N)Cc1cc2ncnc(NCc3ccncc3)c2s1 [Cpd 11, 6-[(2S)-2-aminopropyl]-N-[(pyridin-4-yl)methyl]thieno[3,2-d]pyrimidin-4-amine]
EC2x for IKBKAP protein expression (concentration producing two times the amount of IKBKAP protein vs DMSO vehicle control): *** (between >0.02 μM and ≤0.5 μM) | MFI (maximum fold increase in IKBKAP protein abundance relative to the vehicle control): **** (between >3.9 and <4.9)

COc1c(C[C@@H](N)CO)sc2c(NCc3cccs3)nc(Cl)nc12 [Cpd 99, (2R)-2-amino-3-(2-chloro-7-methoxy-4-{[(thiophen-2-yl)methyl]amino}thieno[3,2-d]pyrimidin-6-yl)propan-1-ol]
EC2x for IKBKAP protein expression (concentration producing two times the amount of IKBKAP protein vs DMSO vehicle control): **** (between >0.005 μM and ≤0.02 μM) | MFI (maximum fold increase in IKBKAP protein abundance relative to the vehicle control): *** (between >2.9 and <3.9)

Clc1nc(NCc2cccs2)c2scc(Br)c2n1 [Cpd 80, 7-bromo-2-chloro-N-[(thiophen-2-yl)methyl]thieno[3,2-d]pyrimidin-4-amine]
EC2x for IKBKAP protein expression (concentration producing two times the amount of IKBKAP protein vs DMSO vehicle control): *** (between >0.02 μM and ≤0.5 μM) | MFI (maximum fold increase in IKBKAP protein abundance relative to the vehicle control): ***** (>4.9)

Cc1c(C[C@H](C)N)sc2c(NCc3cnccn3)nc(Cl)nc12 [Cpd 32, 6-[(2S)-2-aminopropyl]-2-chloro-7-methyl-N-[(pyrazin-2-yl)methyl]thieno[3,2-d]pyrimidin-4-amine]
EC2x for IKBKAP protein expression (concentration producing two times the amount of IKBKAP protein vs DMSO vehicle control): *** (between >0.02 μM and ≤0.5 μM) | MFI (maximum fold increase in IKBKAP protein abundance relative to the vehicle control): **** (between >3.9 and <4.9)

Cc1c(C[C@@H](N)CCO)sc2c(NCc3ccco3)nc(Cl)nc12 [Cpd 97, (3S)-3-amino-4-(2-chloro-4-{[(furan-2-yl)methyl]amino}-7-methylthieno[3,2-d]pyrimidin-6-yl)butan-1-ol]
EC2x for IKBKAP protein expression (concentration producing two times the amount of IKBKAP protein vs DMSO vehicle control): ***** (<0.005 μM) | MFI (maximum fold increase in IKBKAP protein abundance relative to the vehicle control): ***** (>4.9)

Cc1csc(CNc2nc(Cl)nc3c(C)c(C[C@H](C)N)sc23)n1 [Cpd 27, 6-[(2S)-2-aminopropyl]-2-chloro-7-methyl-N-[(4-methyl-1,3-thiazol-2-yl)methyl]thieno[3,2-d]pyrimidin-4-amine]
EC2x for IKBKAP protein expression (concentration producing two times the amount of IKBKAP protein vs DMSO vehicle control): ** (between >0.5 μL and ≤1 μM) | MFI (maximum fold increase in IKBKAP protein abundance relative to the vehicle control): *** (between >2.9 and <3.9)

Clc1nc(NCc2ccncc2)c2scc(Br)c2n1 [Cpd 43, 7-bromo-2-chloro-N-[(pyridin-4-yl)methyl]thieno[3,2-d]pyrimidin-4-amine]
EC2x for IKBKAP protein expression (concentration producing two times the amount of IKBKAP protein vs DMSO vehicle control): *** (between >0.02 μM and ≤0.5 μM) | MFI (maximum fold increase in IKBKAP protein abundance relative to the vehicle control): **** (between >3.9 and <4.9)

CC[C@H](N)c1sc2c(NCc3ccco3)nc(Cl)nc2c1C [Cpd 48, 6-[(1S)-1-aminopropyl]-2-chloro-N-[(furan-2-yl)methyl]-7-methylthieno[3,2-d]pyrimidin-4-amine]
EC2x for IKBKAP protein expression (concentration producing two times the amount of IKBKAP protein vs DMSO vehicle control): *** (between >0.02 μM and ≤0.5 μM) | MFI (maximum fold increase in IKBKAP protein abundance relative to the vehicle control): ** (between >1.9 and <2.9)

Cc1c(C[C@H](C)N)sc2c(NCc3ccnn3C)nc(Cl)nc12 [Cpd 81, 6-[(2S)-2-aminopropyl]-2-chloro-7-methyl-N-[(1-methyl-1H-pyrazol-5-yl)methyl]thieno[3,2-d]pyrimidin-4-amine]
EC2x for IKBKAP protein expression (concentration producing two times the amount of IKBKAP protein vs DMSO vehicle control): * (EC2×>1 μM) | MFI (maximum fold increase in IKBKAP protein abundance relative to the vehicle control): * (MFI<1.9)

CCc1nc(NCc2ccco2)c2sc(C[C@H](C)N)c(C)c2n1 [Cpd 16, 6-[(2S)-2-aminopropyl]-2-ethyl-N-[(furan-2-yl)methyl]-7-methylthieno[3,2-d]pyrimidin-4-amine]
EC2x for IKBKAP protein expression (concentration producing two times the amount of IKBKAP protein vs DMSO vehicle control): *** (between >0.02 μM and ≤0.5 μM) | MFI (maximum fold increase in IKBKAP protein abundance relative to the vehicle control): *** (between >2.9 and <3.9)

COc1ccc(-c2c(C[C@H](C)N)sc3c(NCc4ccco4)nc(Cl)nc23)cc1 [Cpd 65, 6-[(2S)-2-aminopropyl]-2-chloro-N-[(furan-2-yl)methyl]-7-(4-methoxyphenyl)thieno[3,2-d]pyrimidin-4-amine]
EC2x for IKBKAP protein expression (concentration producing two times the amount of IKBKAP protein vs DMSO vehicle control): * (EC2×>1 μM) | MFI (maximum fold increase in IKBKAP protein abundance relative to the vehicle control): * (MFI<1.9)

C[C@H](N)Cc1sc2c(NCc3cccs3)nc(Cl)nc2c1-c1ccc(Cl)cc1 [Cpd 88, 6-[(2S)-2-aminopropyl]-2-chloro-7-(4-chlorophenyl)-N-[(thiophen-2-yl)methyl]thieno[3,2-d]pyrimidin-4-amine]
EC2x for IKBKAP protein expression (concentration producing two times the amount of IKBKAP protein vs DMSO vehicle control): * (EC2×>1 μM) | MFI (maximum fold increase in IKBKAP protein abundance relative to the vehicle control): * (MFI<1.9)

Cc1c(C[C@H](C)N)sc2c(NCc3ncccn3)nc(Cl)nc12 [Cpd 55, 6-[(2S)-2-aminopropyl]-2-chloro-7-methyl-N-[(pyrimidin-2-yl)methyl]thieno[3,2-d]pyrimidin-4-amine]
EC2x for IKBKAP protein expression (concentration producing two times the amount of IKBKAP protein vs DMSO vehicle control): *** (between >0.02 μM and ≤0.5 μM) | MFI (maximum fold increase in IKBKAP protein abundance relative to the vehicle control): *** (between >2.9 and <3.9)

C[C@H](N)Cc1sc2c(NCc3cccs3)nc(Cl)nc2c1C1CC1 [Cpd 86, 6-[(2S)-2-aminopropyl]-2-chloro-7-cyclopropyl-N-[(thiophen-2-yl)methyl]thieno[3,2-d]pyrimidin-4-amine]
EC2x for IKBKAP protein expression (concentration producing two times the amount of IKBKAP protein vs DMSO vehicle control): **** (between >0.005 μM and ≤0.02 μM) | MFI (maximum fold increase in IKBKAP protein abundance relative to the vehicle control): **** (between >3.9 and <4.9)

Cc1c(C[C@H](C)N)sc2c(NCc3cccs3)nc(Cl)nc12 [Cpd 28, 6-[(2S)-2-aminopropyl]-2-chloro-7-methyl-N-[(thiophen-2-yl)methyl]thieno[3,2-d]pyrimidin-4-amine]
EC2x for IKBKAP protein expression (concentration producing two times the amount of IKBKAP protein vs DMSO vehicle control): ***** (<0.005 μM) | MFI (maximum fold increase in IKBKAP protein abundance relative to the vehicle control): ***** (>4.9)

Cc1c([C@@H](C)N)sc2c(NCc3ccco3)nc(Cl)nc12 [Cpd 94, 6-[(1R)-1-aminoethyl]-2-chloro-N-[(furan-2-yl)methyl]-7-methylthieno[3,2-d]pyrimidin-4-amine]
EC2x for IKBKAP protein expression (concentration producing two times the amount of IKBKAP protein vs DMSO vehicle control): * (EC2×>1 μM) | MFI (maximum fold increase in IKBKAP protein abundance relative to the vehicle control): * (MFI<1.9)

Clc1nc(NCc2ccco2)c2scc(Br)c2n1 [Cpd 42, 7-bromo-2-chloro-N-[(furan-2-yl)methyl]thieno[3,2-d]pyrimidin-4-amine]
EC2x for IKBKAP protein expression (concentration producing two times the amount of IKBKAP protein vs DMSO vehicle control): *** (between >0.02 μM and ≤0.5 μM) | MFI (maximum fold increase in IKBKAP protein abundance relative to the vehicle control): ***** (>4.9)

Cc1c(C[C@H](C)N)sc2c(NCc3sccc3F)nc(Cl)nc12 [Cpd 90, 6-[(2S)-2-aminopropyl]-2-chloro-N-[(3-fluorothiophen-2-yl)methyl]-7-methylthieno[3,2-d]pyrimidin-4-amine]
EC2x for IKBKAP protein expression (concentration producing two times the amount of IKBKAP protein vs DMSO vehicle control): ***** (<0.005 μM) | MFI (maximum fold increase in IKBKAP protein abundance relative to the vehicle control): ***** (>4.9)

C[C@H](N)Cc1cc2nc(Cl)nc(NCc3cccs3)c2s1 [Cpd 14, 6-[(2S)-2-aminopropyl]-2-chloro-N-[(thiophen-2-yl)methyl]thieno[3,2-d]pyrimidin-4-amine]
EC2x for IKBKAP protein expression (concentration producing two times the amount of IKBKAP protein vs DMSO vehicle control): **** (between >0.005 μM and ≤0.02 μM) | MFI (maximum fold increase in IKBKAP protein abundance relative to the vehicle control): ***** (>4.9)

Cc1c(C[C@H](C)N)sc2c(NCc3ccco3)nc(C(N)=O)nc12 [Cpd 20, 6-[(2S)-2-aminopropyl]-4-{[(furan-2-yl)methyl]amino}-7-methylthieno[3,2-d]pyrimidine-2-carboxamide]
EC2x for IKBKAP protein expression (concentration producing two times the amount of IKBKAP protein vs DMSO vehicle control): * (EC2×>1 μM) | MFI (maximum fold increase in IKBKAP protein abundance relative to the vehicle control): ** (between >1.9 and <2.9)

Cc1c(C[C@H](C)N)sc2c(NCc3nccs3)nc(Cl)nc12 [Cpd 29, 6-[(2S)-2-aminopropyl]-2-chloro-7-methyl-N-[(1,3-thiazol-2-yl)methyl]thieno[3,2-d]pyrimidin-4-amine]
EC2x for IKBKAP protein expression (concentration producing two times the amount of IKBKAP protein vs DMSO vehicle control): ***** (<0.005 μM) | MFI (maximum fold increase in IKBKAP protein abundance relative to the vehicle control): ***** (>4.9)

C[C@H](N)Cc1sc2c(NCc3ccco3)nc(Cl)nc2c1C1CC1 [Cpd 36, 6-[(2S)-2-aminopropyl]-2-chloro-7-cyclopropyl-N-[(furan-2-yl)methyl]thieno[3,2-d]pyrimidin-4-amine]
EC2x for IKBKAP protein expression (concentration producing two times the amount of IKBKAP protein vs DMSO vehicle control): **** (between >0.005 μM and ≤0.02 μM) | MFI (maximum fold increase in IKBKAP protein abundance relative to the vehicle control): ***** (>4.9)

C[C@H](N)Cc1sc2c(NCc3cccs3)nc(C#N)nc2c1C#N [Cpd 85, 6-[(2S)-2-aminopropyl]-4-{[(thiophen-2-yl)methyl]amino}thieno[3,2-d]pyrimidine-2,7-dicarbonitrile]
EC2x for IKBKAP protein expression (concentration producing two times the amount of IKBKAP protein vs DMSO vehicle control): *** (between >0.02 μM and ≤0.5 μM) | MFI (maximum fold increase in IKBKAP protein abundance relative to the vehicle control): *** (between >2.9 and <3.9)

CC[C@H](N)Cc1sc2c(NCc3cccs3)nc(Cl)nc2c1C [Cpd 37, 6-[(2S)-2-aminobutyl]-2-chloro-7-methyl-N-[(thiophen-2-yl)methyl]thieno[3,2-d]pyrimidin-4-amine]
EC2x for IKBKAP protein expression (concentration producing two times the amount of IKBKAP protein vs DMSO vehicle control): ***** (<0.005 μM) | MFI (maximum fold increase in IKBKAP protein abundance relative to the vehicle control): ***** (>4.9)
